Measured values reported in article PMC6017630, “Identification of the NADPH Oxidase 4 Inhibiting Principle of Lycopus europaeus” (Molecules : A Journal of Synthetic Chemistry and Natural …, 2018).

What was measured:
[1] = molecular target: T1, Nox5 (Homo sapiens, UniProt Q96PH1); assay: chemiluminescence of ROS in ionomycin-stimulated Nox5-transfected HEK cells; format: cell-based
T1 sequence (Q96PH1 1-765): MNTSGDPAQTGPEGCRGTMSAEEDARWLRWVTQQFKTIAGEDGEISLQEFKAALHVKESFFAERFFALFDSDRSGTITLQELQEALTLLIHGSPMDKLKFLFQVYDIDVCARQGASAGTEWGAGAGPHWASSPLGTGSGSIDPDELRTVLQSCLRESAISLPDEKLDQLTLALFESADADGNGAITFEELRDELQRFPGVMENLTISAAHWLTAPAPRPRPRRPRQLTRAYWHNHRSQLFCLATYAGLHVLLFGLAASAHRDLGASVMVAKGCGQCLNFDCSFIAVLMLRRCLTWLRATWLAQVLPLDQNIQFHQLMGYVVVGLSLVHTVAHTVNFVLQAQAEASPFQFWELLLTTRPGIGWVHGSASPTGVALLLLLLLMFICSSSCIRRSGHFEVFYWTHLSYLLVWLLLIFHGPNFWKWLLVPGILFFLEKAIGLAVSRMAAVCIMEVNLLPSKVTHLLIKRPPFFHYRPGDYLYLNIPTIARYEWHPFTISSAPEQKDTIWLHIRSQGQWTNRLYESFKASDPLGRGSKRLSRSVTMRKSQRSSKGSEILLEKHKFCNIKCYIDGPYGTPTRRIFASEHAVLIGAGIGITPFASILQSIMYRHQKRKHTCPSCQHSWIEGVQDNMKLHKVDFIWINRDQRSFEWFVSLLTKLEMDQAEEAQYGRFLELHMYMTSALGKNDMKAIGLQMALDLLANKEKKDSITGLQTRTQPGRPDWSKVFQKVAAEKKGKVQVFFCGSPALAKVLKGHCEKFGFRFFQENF
Excerpt: chemiluminescence of ROS in ionomycin-stimulated Nox5-transfected HEK cells on Nox5 | stably transfected Nox5 overexpressing HEK cells were stimulated with ionomycin. This activity could be quenched completely by DPI

[2] = molecular target: T2, NADPH oxidase 4 (Nox4) (Homo sapiens, UniProt Q9NPH5); assay: luminol chemiluminescence of ROS in HEK cells expressing Nox4, normalized to pcDNA cells; mitochondrial ROS scavenging counterscreen; format: cell-based
T2 sequence (Q9NPH5 1-578): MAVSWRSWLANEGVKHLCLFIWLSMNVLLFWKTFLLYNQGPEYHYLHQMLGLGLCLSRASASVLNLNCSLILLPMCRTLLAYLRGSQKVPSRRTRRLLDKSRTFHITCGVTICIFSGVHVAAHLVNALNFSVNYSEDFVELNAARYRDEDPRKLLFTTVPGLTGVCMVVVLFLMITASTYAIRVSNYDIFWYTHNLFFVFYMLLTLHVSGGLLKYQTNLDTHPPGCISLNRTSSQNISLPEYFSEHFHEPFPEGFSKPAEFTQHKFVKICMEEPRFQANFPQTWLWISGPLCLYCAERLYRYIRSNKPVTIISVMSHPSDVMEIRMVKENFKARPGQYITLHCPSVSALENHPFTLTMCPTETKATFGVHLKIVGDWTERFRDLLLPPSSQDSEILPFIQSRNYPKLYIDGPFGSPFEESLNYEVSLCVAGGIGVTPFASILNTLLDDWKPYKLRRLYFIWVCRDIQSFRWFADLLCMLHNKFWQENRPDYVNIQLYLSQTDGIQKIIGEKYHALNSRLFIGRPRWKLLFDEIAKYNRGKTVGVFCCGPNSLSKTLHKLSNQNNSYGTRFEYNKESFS

Compound	chemiluminescence of ROS in ionomycin-stimulated Nox5-transfected HEK cells [1]	IC50 [2] [nM]
c1ccc2c(c1)[I+]c1ccccc1-2 [DPI, diphenyleneiodonium]	stably transfected Nox5 overexpressing HEK cells were stimulated with ionomycin. This activity could be quenched completely by DPI	
O=C(/C=C/c1ccc(O)c(O)c1)O[C@H](Cc1ccc(O)c(O)c1)C(=O)O [RA, rosmarinic acid]		1000
